Measurements from US7635692B2, “Composition for the prevention of osteoporosis comprising a combination of isoflavones and polyunsaturated fatty acids” (DSM IP Assets B.V., priority 2001, dated 2009).

Legend:
[1] = test system: ovariectomized rat osteoporosis (OVX) model; assay: Bone mineral density (BMD) of femur by DXA in the OVX rat model; type: in vivo; conditions: OVX rats
Text: In the following experimental section dual-energy X-ray absorptiometry (DXA) was used to measure bone mineral density.
In the experimental set up data were elaborated using the ovariectomized rat osteoporosis (OVX) model. This model mimics the estrogen deficient status as found in postmenopausal women or poststerilized female pets leading to osteoporosis. The SHAM group with intact ovaries served as control. Each test group consisted of 10-12 animals. The feed used was free of isoflavones, such as, for example, genistein. […] The administration of vitamin K1, in an amount of 20 μg/kg feed corresponds to a daily dosage of about 1 μg/kg BW, the estimated daily requirement of vitamin K1. The amount of vitamin D3 was 500 IU/kg feed which corresponds to a daily dosage of 25 IU/kg BW, the estimated daily requirement. For fortification, PUFA (5% of ROPUPA “30” n-3 Food Oil) was added to the feed corresponding to a PUPA fortification of % in feed as given in Table 1. Bone mineral density, osteocalcin, and deoxypyridinolin have been measured 84 days post intervention.
Bone mineral density (BMD) measurement in the femur of OVX rats: […]

[2] = test system: ovariectomized rat osteoporosis (OVX) model; assay: Serum osteocalcin (bone formation marker) in OVX rats; type: in vivo
Experimental: Osteocalcin, a biochemical marker for bone formation, is a bone-specific protein secreted primarily in osteoblasts, i.e. the bone forming cells. Serum osteocalcin was measured as marker for bone formation.
(§1) In the experimental set up data were elaborated using the ovariectomized rat osteoporosis (OVX) model. This model mimics the estrogen deficient status as found in postmenopausal women or poststerilized female pets leading to osteoporosis. The SHAM group with intact ovaries served as control. Each test group consisted of 10-12 animals. The feed used was free of isoflavones, such as, for example, genistein. The test compounds in various combinations as given in Table 1 have been administered by feed admix. […] The administration of vitamin K1, in an amount of 20 μg/kg feed corresponds to a daily dosage of about 1 μg/kg BW, the estimated daily requirement of vitamin K1. The amount of vitamin D3 was 500 IU/kg feed which corresponds to a daily dosage of 25 IU/kg BW, the estimated daily requirement. For fortification, PUFA (5% of ROPUPA “30” n-3 Food Oil) was added to the feed corresponding to a PUPA fortification of % in feed as given in Table 1. Bone mineral density, osteocalcin, and deoxypyridinolin have been measured 84 days post intervention.
Serum Osteocalcin (bone formation marker) measurement in OVX rats: […]

[3] = test system: ovariectomized rat osteoporosis (OVX) model; assay: Deoxypyridinoline excretion (bone resorption marker) in OVX rats; type: in vivo
Experimental: Deoxypyridinoline (DPD) crosslinks excretion provides a highly specific marker for bone resorption. DPD crosslinks excretion was measured as a marker for bone resorption. The values have to be corrected for urinary concentration by creatinine measurement as it is known in the art.
as §1
Deoxypyridinoline (bone resorption marker) measurement in OVX rats: […]

[4] = Plasma genistein level in rats after feed admix; type: in vivo, rat; conditions: genistein 15 mg/kg BW per day, comparable to Japanese people on a traditional diet
Text: as §1

[5] = 84 days post intervention, compared with the other groups

## O=c1c(-c2ccc(O)cc2)coc2cc(O)cc(O)c12 [Genistein, 4′,5,7-trihydroxy-isoflavone]
[1]; [5]
  Effect on BMD (in words): improved BMD to control values
[1]; feed admix, day 84 postintervention, DXA
  Bone mineral density of femur, Mean: 0.143 g/cm^2
[2]; [5]
  Effect on serum osteocalcin levels (in words): reduced osteocalcin levels to control values
[2]; feed admix, day 84 postintervention
  Serum osteocalcin, Mean serum conc.: 14.6 ng/mL
[3]; [5]
  Effect on DPD excretion (in words): restores DPD excretion to values of the control group
[3]; feed admix, day 84 postintervention, corrected by creatinine
  Deoxypyridinoline excretion, Mean: 220.5 nmol DPD/mmol Creatinine
[4]
  plasma genistein level: ~280 nM
